The text below walks through data of patent US12437835B2, “Interrogatory cell-based assays and uses thereof” (Berg LLC, priority 2012, dated 2025).

Entries after “also recorded” stand apart in the source; their conditions may differ.

The subject of one assay is GPAT1. The assay is described as follows: Western blotting of GPAT1 in cardiomyocytes. The settings on record: hyperglycemia conditioned cardiomyocytes, diabetic drug plus Coenzyme Q10 (T+R). The class given is cell-based, Human. The protocol:
(§1) Human cardiomyocytes were subject to conditions simulating an diabetic environment experienced by the disease-relevant cells in vivo. Specifically, the cells were exposed to hyperglycemic conditions and hyperlipidemia conditions. The hyperglycemic condition was induced by culturing cells in media containing 22 mM glucose. The hyperlipidemia condition was induced by culturing the cells in media containing 1 mM L-carnitine, 0.7 mM Oleic acid and 0.7 mM Linoleic acid.
(§2) The cell model comprising the above-mentioned cells, wherein the cells were exposed to each condition described above, was additionally “interrogated” by exposing the cells to an “environmental perturbation” by treating with a diabetic drug (T) which is known to cause cardiotoxicity, a rescue molecule (R) or both the diabetic drug and the rescue molecule (T+R). Specifically, the cells were treated with diabetic drug; or treated with rescue molecule Coenzyme Q10 at 0, 50 µM, or 100 µM; or treated with both of the diabetic drug and the rescue molecule Coenzyme Q10.
(§3) Protein expression levels of GPAT1 and TAZ for each condition and each treatment were tested with western blotting.
For orientation: A western blot detects proteins with antibodies after separation by electrophoresis.

Assay [1] deals with HUVEC cells. The assay is described as follows: Reactive oxygen species (ROS) generation in HUVEC under normoxia and hypoxia. The class given is cell-based, Human. The settings on record: subconfluent and confluent HUVEC, normoxic or hypoxic, 0, 100 or 1500 μM CoQ10. The protocol: (§4) The response of HUVEC cells to normoxia and hypoxia in the presence of absence of CoQ10 was assessed. Specifically, HUVEC cells were grown in subconfluent and confluent cultures under normoxic or hypoxic conditions as described herein. The cells were also exposed to 0, 100, or 1500 μM CoQ10. Nitric oxide (NO) and reactive oxygen species (ROS) levels were determined using methods provided herein.

Assay [2] relates to HUVEC cells. Kind of assay: Nitric oxide (NO) generation in HUVEC under normoxia and hypoxia. Format: cell-based, Human. Particulars: subconfluent and confluent HUVEC, normoxic or hypoxic, 0, 100 or 1500 μM CoQ10. The method, then: as §4
Assay [3] relates to HUVEC cells. Kind of assay: HUVEC apoptosis (annexin V/propidium iodide positive cells, flow cytometry). The class given is cell-based, Human. Particulars: for propidium iodide positive apoptotic cells: 24 hours. The method, then: (§5) Methods: Human umbilical vein endothelial cell (HUVEC) fate decisions that modulate the angiogenic phenotype were examined in the presence of 100 or 1500 μM CoQ10 or excipient and compared to untreated control cells. Endothelial cell fate assays for apoptosis, proliferation, migration and 3-D tube formation within MATRIGEL® were performed.
(§6) To assess the potential effects of CoQ10 on endothelial migration, HUVEC migration was examined 5 hours post-cell clearance, in an endothelial scratch assay. […] In order to determine if the CoQ10 anti-tumor activity is due to effects on endothelial sprouting angiogenesis, we examined endothelial tube formation in 3-D MATRIGEL® cultures over time. Addition of excipient in both the gel and overlying media impaired tube formation compared to control.
CoQ10 has divergent effects on endothelial cell survival: Confluent and sub-confluent cultures of HUVEC cells were treated for 24 hours with 100 or 1500 μM CoQ10 and assayed for propidium iodide positive apoptotic cells. The results are shown in FIGS. 53A and 53B, respectively.
In general terms: Flow cytometry measures light scatter and fluorescence of single cells or particles in a stream.

In another assay the test system is Bcl2. Particulars: normal fibroblast, co-administration of CoQ-10 and VEGF; cited from earlier work.
Assay [4] relates to HUVEC cells. The assay is described as follows: Endothelial tube formation in 3-D MATRIGEL
The class given is cell-based, Human. The settings on record: for endothelial tube formation: 3-D matrigel. The method, then:
as §5, §6
CoQ10 impairs endothelial tube formation: Endothelial cells growing in 3-D matrigel form tubes over time. Differential effects of 100 μM and 1500 μM CoQ10 on tube formation were observed. […] Images shown in FIG. 56 were taken at 72 hours.

Assay [5] concerns HUVEC cells. Kind of assay: HUVEC bioenergetics (Seahorse assays). The class given is cell-based, Human. Particulars: sub-confluent HUVEC cultures, CoQ10 10, 100, 1500 μM. The protocol:
The bioenergetics of HUVEC cells were assessed in the presence of various concentrations of CoQ10. Specifically, HUVEC cells were grown in subconfluent or confluent conditions in the absence or presence of CoQ10 (10, 100, 1500 μM). Oxygen consumption rates (OCR), both total and mitochondrial, ATP production, and Extra Cellular Acidification Rate (ECAR) were assessed using Seahorse assays.

The subject of assay [6] is HUVEC cells. Kind of assay: HUVEC cell numbers. The class given is cell-based, Human. The protocol: as §5
CoQ10 decreases endothelial cell numbers and proliferation: Sub-confluent cultures of HUVEC cells were treated for 72 hours with 100 or 1500 μM CoQ10 and assayed for both cell numbers (FIG. 54A) and proliferation (FIG. 54B) using a propidium iodide incorporation assay (detects G2/M phase DNA).

In a further assay the test system is TAZ. Kind of assay: Western blotting of TAZ in cardiomyocytes. Format: cell-based, Human. Particulars: hyperglycemia conditioned cardiomyocytes, diabetic drug plus Coenzyme Q10 (T+R). The method, then:
as §1, §2, §3

The test system of assay [7] is HUVEC cells. Kind of assay: HUVEC migration, endothelial scratch assay. The settings on record: for closure of the cleared area (scratch assay): confluent HUVEC. The class given is cell-based, Human. The method, then: as §5, §6
CoQ10 decreases endothelial cell migration: HUVEC cells were grown to confluence tested for migration using the ‘scratch’ assay. 100 or 1500 μM CoQ10 was applied at the time of scratching and closure of the cleared area was monitored over 48 hours.

In assay [8] the test system is human mitochondrial energy metabolism genes. Kind of assay: Transcriptional profiling of mitochondrial energy metabolism genes in diabetic cardiomyocytes. The class given is cell-based. Particulars: diabetic drug plus rescue molecule Coenzyme Q10 (T+R) vs untreated (UT). The method, then: Human cardiomyocytes were subject to conditions simulating an diabetic environment experienced by the disease-relevant cells in vivo. Specifically, the cells were exposed to hyperglycemic conditions and hyperlipidemia conditions. The hyperglycemic condition was induced by culturing cells in media containing 22 mM glucose. The hyperlipidemia condition was induced by culturing the cells in media containing 1 mM L-carnitine, 0.7 mM Oleic acid and 0.7 mM Linoleic acid. […]
Cell samples from each condition with each perturbation treatment were collected at various times following treatment, including after 6 hours of treatment. For certain conditions, media samples were also collected and analyzed.
iProfiling of changes in total cellular protein expression by quantitative proteomics was performed for cell and media samples collected for each condition and with each “environmental perturbation”, i.e, diabetic drug treatment, Coenzyme Q10 treatment or both, using the techniques described above in the detailed description. […] Following data collection (Ct), the final fold change over control was determined using the δCt method as outlined in manufacturer's protocol. […] Functional assays such as Oxygen consumption rate OCR were measured by employing the Seahorse analyzer essentially as recommended by the manufacturer. […]

Setting [9] is: concentration not stated (summary).

On to `COC1=C(OC)C(=O)C(C/C=C(\C)CC/C=C(\C)CC/C=C(\C)CC/C=C(\C)CC/C=C(\C)CC/C=C(\C)CC/C=C(\C)CC/C=C(\C)CC/C=C(\C)CCC=C(C)C)=C(C)C1=O` [CoQ10, Coenzyme Q10], for which the “protein expression level of GPAT1” value with GPAT1 is “normalized”. Also, the “generation of reactive oxygen species (ROS)” value with HUVEC cells [1] is “differential dose dependent generation”. The “generation of nitric oxide (NO)” value in the assay with HUVEC cells [2] is “differential dose dependent generation”. Also, the “HUVEC apoptosis (annexin V/propidium iodide positive cells)” value in the assay on HUVEC cells [3] (1500 μM CoQ10, compared to excipient or control cells) is given as “increase”. In addition, the “apoptosis / cell death of sub-confluent (angiogenic/proliferating) endothelial cells” value in the assay on HUVEC cells [3] (setting [9]) is “increases apoptosis; also recorded: selectively induces cell death”. For the same molecule, in the assay with HUVEC cells [3] (concentration not stated or low doses (summary), compared to controls), the “cell death of confluent (non-proliferating) endothelial cells” value was “protective; also recorded: decreased compared to controls”. In addition, the “propidium iodide positive apoptotic cells” value in the assay with HUVEC cells [3] (confluent HUVEC, 100 or 1500 μM CoQ10) is recorded as “protective”; in the assay on HUVEC cells [3] (sub-confluent HUVEC, 1500 μM CoQ10), “increased apoptosis”. Besides, in the assay on Bcl2, the “levels of Bcl2” value is listed as “no effect”. The HUVEC tube formation entry in the assay with HUVEC cells [4] (1500 μM CoQ10, compared to both excipient and control untreated cells, 24 hours up to 96 hours) was “further impaired”. The endothelial tube formation entry was “modest effect” in the assay on HUVEC cells [4] (100 μM CoQ10); “Impaired cell to cell association and breakdown of early tube structure was significant; also recorded: dramatic disruption of endothelial tube formation” in the assay on HUVEC cells [4] (1500 μM CoQ10, images at 72 hours). In the assay with HUVEC cells [4] (setting [9]), the “tube formation in 3-D MATRIGEL tube formation assays” value is recorded as “impairs”. Moreover, the “mitochondrial OCR” value with HUVEC cells [5] is “reverts mitochondrial OCR to confluent level OCR”. In the assay on HUVEC cells [6] (1500 μM CoQ10), the HUVEC cell counts entry is recorded as “significantly decreased”. The cell numbers result with HUVEC cells [6] (sub-confluent HUVEC, 72 hours, 100 or 1500 μM, high concentrations of CoQ10) was “significant decrease; also recorded: decreased cell numbers”. In addition, the “protein expression level of TAZ” value in the assay with TAZ is reported as “normalized”. In the assay on HUVEC cells [7] (5 hours post-cell clearance, 100 and 1500 μM, excipient also impaired migration), the HUVEC migration entry was “significantly impaired”. Moreover, the “endothelial migration in scratch assays” value with HUVEC cells [7] (setting [9]) is “potent inhibition of endothelial migration; also recorded: impairs endothelial migration”. Also, the “closure of the cleared area (scratch assay)” value in the assay with HUVEC cells [7] (100 μM CoQ10, monitored over 48 hours, compared to control) was “delayed endothelial closure”; in the assay on HUVEC cells [7] (1500 μM CoQ10, up to 48 hours) it was “prevented closure”. Moreover, the “transcriptional network and expression of human mitochondrial energy metabolism genes” value in [8] (listed as Coenzyme Q10) is “normalize gene expression and transcription”; in [8] (listed as rescue molecule) it was “normalizes gene expression”.
